Reference: patent US20240247253A1, “PRODUCTION METHOD OF POLYPEPTIDE, TAG, EXPRESSION VECTOR, EVALUATION METHOD OF POLYPEPTIDE, PRODUCTION METHOD OF NUCLEIC ACID DISPLAY LIBRARY, AND SCREENING METHOD” (FUJIFILM Corporation, priority 2021, published 2024)

System: cell-free peptide synthesis system derived from Escherichia coli
Test: Cell-free biosynthesis of the integrin binding peptide fusion protein with tag, reaction time 10 minutes, ELISA
Format: biochemical
Settings: for Biosynthesis amount of fusion protein: relative value, control without tag = 1, reaction time 10 minutes, fusion protein SEQ ID NO: 5, SKIK encoded by SEQ ID NO: 110
Experimental: The cell-free biosynthesis of the polypeptide was carried out in a translation solution containing a template DNA, PUREfrex 2.0 (GeneFrontier, PF201-0.25-5), and Aminoacyl tRNA (1). 1.25 μL (62.5 ng) of the template DNA prepared to 50 ng/μL, 2.5 μL of PUREfrex 2.0 Solution I, 0.25 μL of Solution II, 0.5 μL of Solution III, and 0.5 μL of Aminoacyl tRNA (1) were mixed and mixture was subjected to a reaction at 37° ° C. for 1 hour.
The amount of the biosynthesized polypeptide was measured by ELISA. 50 ng of Recombinant Human Integrin αVβ3 (R&D systems, 3050-AV-050) was immobilized in each well of a 96-well plate and blocked with Blocker Casein in PBS (Thermo, 37528), and then a cell-free biosynthesis solution diluted with Can Get Signal Immunoreaction Enhancer Solution I (TOYOBO, NKB-101) containing 5 mmol/L MgCl2 was added thereto, and the mixture was subjected to a reaction at room temperature for 3 hours. After washing with 5 mmol/L MgCl2/0.05% Tween 20-containing phosphate buffered saline (PBS), an anti-Myc antibody (Cell Signaling, 14038S) diluted with Can Get Signal Immunoreaction Enhancer Solution II (TOYOBO, NKB-101) was added thereto, and the mixture was subjected to a reaction at room temperature for 2 hours. After washing with PBS containing 5 mmol/L MgCl2/0.05% Tween 20, Super Signal ELISA Femto Substrate (Thermo, 37075) was added thereto, and the luminescence was measured. The amount of the fusion protein in the cell-free biosynthesis solution was calculated based on a calibration curve created from the fusion protein having a known concentration. The luminescence measurement was performed twice, and the average value of the amounts of the fusion protein was calculated. Table 2-1 and Table 2-2 show relative values of the biosynthesis amounts of respective fusion proteins in a case where the amount of the fusion protein of the control example was set to the reference value 1.
As a comparative control, a SKIK tag represented by SEQ ID NO: 107 was selected. The polypeptide to be biosynthesized is the fusion protein containing the integrin binding peptide, as in Example 1.
Using a template DNA including DNA sequences (SEQ ID NOs: 73 to 98) encoding VKKX tags represented by SEQ ID NOs: 27 to 52 produced in Example 1, and a DNA sequence (SEQ ID NO: 110) encoding a SKIK tag represented by SEQ ID NO: 107 produced in Example 2, the biosynthesis reaction was performed in the same manner as in Example 1 by setting the reaction time to 10 minutes. In the same manner in Example 1, the fusion protein was expressed by the cell-free peptide synthesis system and quantified by ELISA. The measurement was performed twice, and the average value of the amounts of the fusion protein was calculated. […] As control example used in Example 1, the control example of the reference value 1 has a form in which the base sequence (SEQ ID NO: 6) encoding the fusion protein is arranged immediately after the start codon ATG.

Substance	Biosynthesis amount of fusion protein	increase rate of expression level of the fusion protein (text of Example 3, incubation time of biosynthesis reaction 10 minutes)
SEQ ID NO: 27: VKKX tag, amino acid sequence VKKTKT (VKKX Tag)	12.81	–
SEQ ID NO: 107: tag consisting of an amino acid sequence of SKIK, disclosed in WO2016/204198A; comparative control (SKIK Tag) [reference compound]	1.27	1.3 times
